Experimental data from ChEMBL document CHEMBL1201862, “PubChem BioAssay data set” (2004).
Calls of active or inactive are those of the source. Cut-off read from the data, not from the text of the source: actives have a measured IC50 and inactives only a lower limit.

Molecular target: Envelope glycoprotein gp160 (Human immunodeficiency virus 1, UniProt Q6QLK5)
Test: cell-free HIV fusion peptide-binding blockers – biochemical, uHTS, fluorescence dequenching, […] (AID 1986)

Sequence of Envelope glycoprotein gp160 (Q6QLK5 whole entry, the tested form may be a part): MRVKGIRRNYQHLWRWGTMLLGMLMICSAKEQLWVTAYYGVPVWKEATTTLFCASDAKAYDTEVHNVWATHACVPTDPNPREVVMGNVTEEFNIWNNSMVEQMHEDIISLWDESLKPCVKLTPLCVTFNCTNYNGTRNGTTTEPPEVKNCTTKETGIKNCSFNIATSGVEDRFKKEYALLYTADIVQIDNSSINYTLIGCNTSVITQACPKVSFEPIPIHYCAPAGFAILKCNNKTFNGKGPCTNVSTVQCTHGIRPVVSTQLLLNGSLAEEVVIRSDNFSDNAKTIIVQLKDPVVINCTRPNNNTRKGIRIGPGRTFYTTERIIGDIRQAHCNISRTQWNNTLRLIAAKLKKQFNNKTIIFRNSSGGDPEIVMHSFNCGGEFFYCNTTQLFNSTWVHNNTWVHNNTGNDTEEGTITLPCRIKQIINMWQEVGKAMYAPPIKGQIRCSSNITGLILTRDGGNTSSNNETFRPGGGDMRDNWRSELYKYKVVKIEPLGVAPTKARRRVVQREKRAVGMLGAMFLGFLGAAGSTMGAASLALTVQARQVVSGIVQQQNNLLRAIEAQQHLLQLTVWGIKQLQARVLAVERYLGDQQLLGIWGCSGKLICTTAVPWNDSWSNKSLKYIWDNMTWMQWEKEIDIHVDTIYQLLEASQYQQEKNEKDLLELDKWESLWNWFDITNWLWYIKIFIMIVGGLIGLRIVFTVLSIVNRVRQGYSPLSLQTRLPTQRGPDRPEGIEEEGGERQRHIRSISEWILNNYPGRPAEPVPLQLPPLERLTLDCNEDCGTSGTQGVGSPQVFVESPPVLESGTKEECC

SMILES | IC50
CC(C)(C)c1ccc(S(=O)(=O)/N=C2\C=C(NS(=O)(=O)c3ccccc3)C(=O)c3ccccc32)cc1 | 9.23 µM (active)
CC(c1ccccc1)N1C(=O)c2ccc(C(=O)Nc3ccc(Br)cc3C(=O)O)cc2C1=O (configuration not stated) | 14.1 µM (active)
